Measured values: PubChem BioAssay (NCI)
Where “and” joins values, the source holds several entries; their conditions need not be identical. Equal entries are not always repeated.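 Values below derive from 48-hour exposures of cells grown in 96-well plates, with endpoints linearly interpolated between the two concentrations bracketing the appropriate inhibition level. GI50: concentration for 50% inhibition of growth. TGI is the concentration that stops growth completely.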

Columns and labels:
Experiment in all cases: NCI tumour cell line growth inhibition, 48 h
[1] = system: DLD-1 colon
[2] = system: DMS 273 small cell lung
[3] = system: LXFL 529 NSCLC
[4] = system: M19-MEL melanoma
[5] = system: SNB-78 CNS
[6] = system: HOP-18 NSCLC
[7] = system: MDA-N
[8] = system: XF 498 CNS
[9] = system: RXF-631 renal
[10] = system: SN12K1 renal

| SMILES | TGI [1] [µM] | TGI [2] [µM] | TGI [3] [µM] | TGI [4] [µM] | TGI [5] [µM] | TGI [6] [µM] | TGI [7] | TGI [8] [µM] | TGI [9] [µM] | other results |
| --- | --- | --- | --- | --- | --- | --- | --- | --- | --- | --- |
| CCN(CC)CCCn1cnc2ncccc2c1=O | > 100 | > 100 | > 100 | > 100 | > 100 |  |  |  |  |  |
| CC1(Cl)CC2OC3(Br)C=CC(C)(O)C2(CC1Br)C3(C)C (stereo not given) | > 100 | > 100 | > 100 | > 100 | > 100 | > 100 |  |  |  |  |
| Nc1cc(C(=O)O)[nH]c(=O)n1 |  |  |  |  |  |  | > 100 µM |  |  |  |
| CSc1cccc(-n2c3nc(=O)n(C)c(=O)c-3nc3ccccc32)c1 | 32.6 | 13.2 | 26.2 | 5.03 | 43.7 | 26.2 |  | 13.4 |  |  |
| Cc1ccccc1C1=[N+]([O-])c2ccccc2C1=O | 31.9 |  | 28.3 | 28.5 |  | 54.4 |  | 31.3 | 42.8 |  |
| COC(c1cccc(C(O)(C(F)(F)F)C(F)(F)F)c1)(C(F)(F)F)C(F)(F)F | 34.6 | 34.8 | 32 | 30.5 |  | 32.1 |  | 28.2 |  |  |
| COc1ccc(NC(=O)CC(=O)N2N=C(N(CCC#N)c3ccccc3Cl)CC2c2ccccc2)cc1 (stereo not given) | > 100 | > 100 | > 100 | > 100 | > 100 | > 100 |  | > 100 | > 100 |  |
| CCC1C(=O)OCc2c1cc1n(c2=O)Cc2cc3ccccc3nc2-1 (stereo not given) |  |  |  |  |  |  | > 100 µM |  |  |  |
| O=C(Nc1ccccc1)c1nn(-c2cc(S(=O)(=O)O)c([N+](=O)[O-])cc2Cl)[n+](-c2cc(S(=O)(=O)[O-])c([N+](=O)[O-])cc2Cl)n1 |  |  |  |  |  |  | > 100 µM |  |  |  |
| CCC[CH2][Sn]([CH2]CCC)([O]C(=O)c1cc(F)ccc1F)[O][Sn]([CH2]CCC)([CH2]CCC)[O]C(=O)c1cc(F)ccc1F | 0.974 | 1.56 | 0.155 | 0.459 | 1.59 | 1.67 | 1.46 µM | 0.305 |  | GI50 [1]: 0.206 µM; GI50 [2]: 0.331 µM; GI50 [6]: 0.654 µM; GI50 [3]: 0.0185 µM; GI50 [4]: 0.0854 µM; GI50 [7]: 0.239 µM; GI50 [5]: 0.222 µM; GI50 [8]: 0.16 µM |
| O=[N+]([O-])c1ccccc1N=Nc1c(O)[nH]c2ccc(Br)cc12 |  |  |  |  |  |  | > 60.5 µM |  |  |  |
| CC[O-].CC[O-].O=C([CH-]C(=O)c1cccnc1)c1ccccc1.O=C([CH-]C(=O)c1cccnc1)c1ccccc1.[Ti+4] |  | > 100 | > 100 | > 100 | > 100 |  |  | 90.6 | > 100 | GI50 [2]: 68.6 µM; GI50 [3]: 43.6 µM; GI50 [4]: 77.7 µM; GI50 [9]: 25.9 µM; GI50 [5]: > 100 µM; GI50 [8]: 32.8 µM |
| S=C(N/N=C(/c1ccccc1)c1ccccn1)N1CCCCC1 |  |  |  |  |  |  | 2.26 µM and 2.62 µM |  |  | GI50 [7]: 0.118 µM |
| Nc1nc(N)c(Cn2ccnc2)c(=O)[nH]1 |  |  |  |  |  |  | > 100 µM |  |  |  |
| C/C=C/C1=C(Cl)C(=O)[C@@H](Cl)[C@@]1(O)C(=O)OC | 9.35 | 9.61 | 7.41 | 10.1 | 39.4 | 11 |  | 13.3 | 43.9 | TGI [10]: 4.48 µM |
| Cc1cc(Cl)cc2c(N=Nc3ccccc3[N+](=O)[O-])c(O)[nH]c12 |  |  |  |  |  |  | > 100 µM |  |  |  |
| CC(=O)Oc1cc(C)c2c(c1OC(C)=O)CC1(O2)[C@@H](C)CCC2[C@@]3(C)CC[C@H](OC(C)=O)C(C)(C)C3CC[C@]21C (stereo not given in full) | 15.1 | 4.46 | 16 | 5.04 | 4.64 | 6.81 |  |  | 19.9 |  |
| CN(C)CCN(C)CC1COC(C)(C)O1 (stereo not given) | > 100 | > 100 | > 100 | > 100 | > 100 | > 100 |  | > 100 |  |  |

| SMILES | TGI [1] [µM] | TGI [2] [µM] | TGI [3] [µM] | TGI [4] [µM] | TGI [5] [µM] | TGI [6] [µM] | TGI [7] | TGI [8] [µM] | TGI [9] [µM] | other results |
| --- | --- | --- | --- | --- | --- | --- | --- | --- | --- | --- |
| Cc1oc2c(C)c3oc(=O)cc(C)c3cc2c1CNC(=O)[C@@H]1OCCOCCOCCOCCOCCOC1C(=O)O (stereo not given in full) | > 100 | > 100 | 27.7 | > 100 | > 100 | > 100 |  |  | > 100 |  |
| CCOC(=O)c1c(-c2ccccc2)oc(-c2ccccc2)c1C(=O)OCC | > 100 | > 100 | > 100 | > 100 | > 100 | > 100 |  | > 100 |  |  |
| O=C1c2cccnc2C(=O)C2C3C=CC(C3)C12 (stereo not given) |  |  |  |  |  |  | 13.2 µM |  |  |  |
| CCCCCCCC(=O)NCC(O)CNC(=O)CCCCCCC | > 100 | > 100 | > 100 | > 100 | > 100 | > 100 |  | > 100 |  |  |
| CC(=O)O[C@@]12CO[C@@H]1C[C@H](O)[C@@]1(C)C(=O)[C@H](O)C3=C(C)[C@@H](OC(=O)[C@H](O)[C@@H](NC(=O)OC(C)(C)C)c4ccccc4)C[C@@](O)([C@@H](OC(=O)c4ccccc4)[C@H]21)C3(C)C | > 75.4 | 17.4 | > 100 | 21.2 |  | 74.5 |  |  | > 56.7 | GI50 [1]: 0.0352 µM and 0.0338 µM; GI50 [2]: 0.0112 µM and 0.0271 µM; GI50 [3]: 0.0356 µM and 0.0257 µM; GI50 [4]: 0.0114 µM; GI50 [9]: 0.297 µM; GI50 [8]: 0.0397 µM and 0.0317 µM |
| CCOC(=O)N1C2C=C(C)C(ON2C(=O)c2ccccc2)C2C(C)C(=O)N21 (stereo not given) | > 100 | > 100 | > 100 | > 100 | > 100 | > 100 |  | > 100 |  |  |
| CC(=O)N1c2ccccc2C2=CC3C4C(=O)N(c5ccccc5)C(=O)C4C21C1C(=O)N(c2ccccc2)C(=O)C31 (stereo not given) | > 100 |  | > 100 |  | > 100 | > 100 |  | 76.8 |  |  |
| Cn1c2c(c3ccccc31)CCN(CCN1CCN(c3ccccc3)CC1)C2=O | > 100 | > 100 | > 100 |  |  | > 100 |  | 61.3 | > 100 |  |
| COc1ccc2c(c1O)C13CCN(C)C(C2)C1CCC1(C3)OCCO1 (stereo not given) |  |  |  |  |  |  | > 100 µM |  |  |  |
| Cc1noc2cccc(OCc3ccccc3)c12 | > 100 | > 100 | > 100 | > 100 | > 100 | > 100 |  | > 100 | > 100 |  |
| CCOC(=O)/C(=N\OC)C(O)C(F)(F)F (stereo not given) |  |  |  |  |  |  | > 100 µM |  |  |  |
| CCN(CC)c1ccc(/C=C2/C[N+](C)(C)C/C(=C/c3ccc(N(CC)CC)cc3)C2=O)cc1 | > 100 |  | 2.81 | 2.84 | 9.62 | 25 | 3.56 µM | 6.59 | > 100 |  |
| O=C(O)C1=CCCc2ccc3ccccc3c21 |  | > 100 | > 100 | > 100 | > 100 | > 100 |  | > 100 | > 100 |  |
| [Cl][Sn]([Cl])([c]1ccccc1)[c]1ccccc1 | 17.5 |  | 2.93 | 68.6 | 56.7 | 31.8 |  | 6.21 |  | GI50 [1]: 4.51 µM; GI50 [6]: 17.9 µM; GI50 [3]: 1.53 µM; GI50 [4]: 19.5 µM; GI50 [5]: 9.33 µM; GI50 [8]: 2.58 µM |
| NC(=O)C#CC#CC#CCO |  | 4.1 | 2.35 | 3.26 | 7.03 | 3.28 |  |  |  |  |
| CS(=O)(=O)OCC1OC(n2ccc(NC(=O)c3ccccc3)nc2=O)CC1OS(C)(=O)=O (stereo not given) |  |  |  |  |  |  | > 100 µM |  |  |  |
| N#CC(C(=O)/C(=N/NC(=O)c1ccccc1O)C(C#N)c1ccccc1)c1ccccc1 (stereo not given) | > 100 | > 100 | > 100 | > 100 | > 100 | > 100 |  | > 100 | > 100 |  |
